Each structure is given as a SMILES string.

Our source for the IC50 and melting point values is patent US8124629B2, “Naphthylacetic acids” (Hoffmann-La Roche Inc., priority 2008, dated 2012).

In data set [1] the target is T1, human CRTH2 (Homo sapiens, UniProt Q9Y5Y4).
T1 sequence (Q9Y5Y4 1-395): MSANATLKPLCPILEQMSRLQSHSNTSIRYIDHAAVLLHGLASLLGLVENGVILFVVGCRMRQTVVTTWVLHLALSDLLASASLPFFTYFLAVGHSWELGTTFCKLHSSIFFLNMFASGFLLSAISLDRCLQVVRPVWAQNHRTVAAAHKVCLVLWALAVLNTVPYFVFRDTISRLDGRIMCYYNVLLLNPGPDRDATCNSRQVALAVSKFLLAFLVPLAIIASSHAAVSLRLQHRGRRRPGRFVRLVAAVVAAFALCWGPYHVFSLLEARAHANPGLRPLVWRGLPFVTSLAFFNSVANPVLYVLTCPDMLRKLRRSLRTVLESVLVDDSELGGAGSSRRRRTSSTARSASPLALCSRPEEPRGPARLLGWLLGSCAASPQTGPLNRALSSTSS
As to the kind of experiment: Human CRTH2 Receptor Binding Assay (whole cell, [3H]ramatroban). Set-up: expressed in transfected cells; host or cells: CHO-K1. The note with it: CHO-K1 cells expressing human CRTH2 and G-alpha16; 20 nM [3H]ramatroban; 1 hour, room temperature. In outline: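 CHO-K1 cells stably co-expressing human CRTH2 and G-alpha16, 1.5×10^5 cells/reaction, bound 1 h at room temperature with 20 nM [3H]ramatroban in PBS, 10 mM MgCl2, 0.06% BSA. Filter-bound radioactivity counted; non-specific binding defined with 10 μM 15(R)-15-methyl PGD2. IC50 from 4-parameter fit of 7-concentration inhibition data.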

The target in data set [2] is T1, human CRTH2. As to the kind of experiment: Calcium Flux Assay Using Fluorometric Imaging Plate Reader (FLIPR). Format: cell-based. Set-up: expressed in transfected cells; host or cells: CHO-K1 (previously transfected with G-alpha 16). Particulars: CHO-K1 cells with G-alpha 16 and human CRTH2; inhibition of ligand (DK-PGD2) induced Ca2+ flux; read-out: FLIPR assay IC50 (exceptions, greater than 3). The method, then:
CHO-K1 cells previously transfected with G-alpha 16 were subsequently transfected with the human CRTH2 receptor and the neomycin resistance gene. Following selection in 800 μg/mL G418 (geneticin), individual clones were assayed for their receptor expression based on staining with an anti human CRTH2 IgG, followed by assaying for their response to 13,14-dihydro-15-keto Prostaglandin D2 (DK-PDG2) (ligand) in the Ca^2+Flux assay. Positive clones were then cloned by limiting dilution cloning. The transfected cells were cultured in Ham's F-12 medium supplemented with 10% fetal bovine serum, 2 mM glutamine , 100 U/mL penicillin/100 μg/mL streptomycin, 200 μg/mL hygromycin B, and 800 μg/mL G418 (geneticin). Cells were harvested with trypsin-EDTA (trypsin-ethylenediaminetetraacetic acid) and counted using ViaCount® reagent (from Guava Technologies, Inc. which contains two DNA-binding dyes that enable the reagent user to distinguish between viable and non-viable cells). The cell suspension volume was adjusted to 2.5×10^5 cells /mL with complete growth media. Aliquots of 50 μL were dispensed into BD Falcon™ 384 well black/clear microplates (from BD Biosciences, a division of Becton, Dickinson and Company) and the microplates were placed in a 37° C. CO2 incubator overnight. The following day, the microplates were used in the assay.
Loading Buffer containing dye (from the FLIPR® Calcium 3 Assay Kit from Molecular Devices, a division of MDS Analytical Technologies and MDS Inc.) was prepared by dissolving the contents of one bottle into 200 mL Hank's Balanced Salt Solution containing 20 mM HEPES (4-(2-hydroxyethyl)-1-piperazineethanesulfonic acid) and 2.5 mM probenecid. Growth media was removed from the cell plates and 25 μL of Hank's Balanced Salt Solution (HBSS) containing 20 mM HEPES, 0.05% BSA and 2.5 mM probenecid was added to each well followed by 25 μL of diluted dye using a Multidrop dispenser. The plates were then incubated for 1 hour at 37° C.
During the incubation, test compound plates were prepared by adding 90 μL of HBSS/20 mM HEPES/0.005% BSA buffer to the 2 μL of serial diluted compounds. To prepare serial diluted compounds, 20 mM stocks of compounds were dissolved in 100% DMSO. The compound dilution plate was set up as follows: well #1 received 5 μL of compound plus 10 μL of DMSO. Wells 2-10 received 10 μL of DMSO. 5 μL was mixed and transferred from well #1 into well #2. 1:3 serial dilutions were continued out 10 steps. 2 μL of diluted compound was transferred into duplicate wells of a 384 well “assay plate” and then 90 μL of buffer was added.
After incubation, both the cell and “assay plate” plates were brought to the fluorometric imaging plate reader (FLIPR®) and 20 μL of the diluted compounds were transferred to the cell plates by the FLIPR®. Plates were then incubated for 1 hour at room temperature. After the 1 hour incubation, plates were returned to the FLIPR® and 20 μL of 4.5× concentrated ligand was added to the cell plates. During the assay, fluorescence readings were taken simultaneously from all 384 wells of the cell plate every 1.5 seconds. Five readings were taken to establish a stable baseline, then 20 μL of sample was rapidly (30 μL/sec) and simultaneously added to each well of the cell plate. The fluorescence was continuously monitored before, during and after sample addition for a total elapsed time of 100 seconds. Responses (increase in peak fluorescence) in each well following agonist addition were determined. The initial fluorescence reading from each well, prior to ligand stimulation, was used as a zero baseline value for the data from that well. The responses were expressed as % inhibition of the buffer control. […]
(A change in cytosolic calcium serves as a functional read-out for many receptors and channels.)

Data set [3] concerns DK-PGD2-induced IL-13 production in Th2 cells. In words: DK-PGD2-Induced IL-13 Production Assay in Th2 Cells. The class given is cell-based. The note with it: human Th2 cells; 500 nM DK-PGD2; 4 hrs at 37° C.; IL-13 by ELISA; read-out: IC50 for inhibition of IL-13 production. As to the method: Inhibition of 13,14-dihydro-15-keto Prostaglandin D2 (DK-PGD2)-induced IL-13 production in T helper type 2 (Th2) cells was applied to evaluate compound cellular potency.
Cultures of Th2 cells were established from blood of healthy human volunteers according to the following procedure. Peripheral blood mononuclear cells (PBMC) were first isolated from 50 mL of fresh blood by Ficoll-Hypaque density gradient centrifugation, followed by CD4^+cell purification using a CD4^+T Cell Isolation Kit II (from Miltenyi Biotec Inc.). The CD4^+T cells were then differentiated to Th2 cells by culturing the cells in X-VIVO 15® medium (from Cambrex BioScience Walkersville Inc.) containing 10% human AB serum (serum of blood type AB from Invitrogen Corporation), 50 U/mL of recombinant human interleukin-2 (rhIL-2) (from PeproTech Inc.) and 100 ng/mL of recombinant human interleukin-4 (rhIL-4) (from PeproTech Inc.) for 7 days. The Th2 cells were isolated using a CD294 (CRTH2) MicroBead Kit (from Miltenyi Biotec Inc.) and amplified in X-VIVO 15® medium containing 10% human AB serum and 50 U/mL of rhIL-2 for 2 to 5 weeks. In general, 70% to 80% of the Th2 cells used in the assay are CRTH2-positive when analyzed by fluorescence-activated cell sorting using the BM16 antibody (as previously described) conjugated to phycoerythrin (PE).
The spontaneous production of IL-13 by Th2 cells was determined in the absence of DK-PGD2 stimulation and the value was subtracted from that in the presence of each compound for percent inhibition and IC50 calculations.
The percent inhibition of interleukin 13 (IL-13) production for a compound at various concentrations was calculated according to the following formula, [1-(IL-13 production in the presence of compound)/(IL-13 production in the presence of 0.15% DMSO)]×100. […]
In general terms: ELISA stands for enzyme-linked immunosorbent assay.

Usually IC50 stands for the point on the concentration scale where inhibition reaches its midpoint. As to `NS(=O)(=O)c1ccc(C(=O)c2cc(CC(=O)O)cc3ccc(F)cc23)cc1` [Example 1-2, [6-Fluoro-4-(4-sulfamoyl-benzoyl)-naphthalen-2-yl]-acetic acid], the IC50 at human CRTH2 [1] is 40.2 nM; at human CRTH2 [2], greater than 3000 nM.
The matching figures for `NS(=O)(=O)c1ccc(C(=O)c2cc(CC(=O)O)cc3ccccc23)cc1` [Example 1-3, [4-(4-Sulfamoyl-benzoyl)-naphthalen-2-yl]-acetic acid]: 336 nM and greater than 3000 nM.
Taken in the same sequence, the figures for `CS(=O)(=O)c1ccc(C(=O)c2cc(CC(=O)O)cc3cc4c(cc23)OCO4)cc1` [Example 2-7, [8-(4-Methanesulfonyl-benzoyl)-naphtho[2,3-d][1,3]dioxol-6-yl]-acetic acid] were 264 nM and greater than 3000 nM.
Taken in the same sequence, the figures for `COc1ccc2c(C(=O)c3ccc(S(C)(=O)=O)cc3)cc(CC(=O)O)cc2c1` [Example 2-9, [4-(4-Methanesulfonyl-benzoyl)-7-methoxy-naphthalen-2-yl]-acetic acid] were 199 nM and greater than 3000 nM.
Regarding `CS(=O)(=O)c1cccc(C(=O)c2cc(CC(=O)O)cc3ccccc23)c1` [Example 2-11, [4-(3-Methanesulfonyl-benzoyl)-naphthalen-2-yl]-acetic acid], the 50% inhibitory concentration (IC50) was 135 nM on human CRTH2 [1] and greater than 3000 nM at human CRTH2 [2].
The matching figures for `CS(=O)(=O)c1cccc(C(=O)c2cc(CC(=O)O)cc3cc4c(cc23)OCO4)c1` [Example 2-12, [8-(3-Methanesulfonyl-benzoyl)-naphtho[2,3-d][1,3]dioxol-6-yl]-acetic acid]: 152 nM and greater than 3000 nM.
As for `CS(=O)(=O)c1ccc(C(=O)c2cc(CC(=O)O)cc3ccc(C(F)(F)F)cc23)cc1` [Example 2-29, [4-(4-Methanesulfonyl-benzoyl)-6-trifluoromethyl-naphthalen-2-yl]-acetic acid], the IC50 is 3000 nM in data set [3] and 7.5 nM on human CRTH2 [1].
As for `CS(=O)(=O)c1cccc(C(=O)c2cc(CC(=O)O)cc3ccc(Cl)cc23)c1` [Example 2-30, [6-Chloro-4-(3-methanesulfonyl-benzoyl)-naphthalen-2-yl]-acetic acid], the 50% inhibitory concentration (IC50) on human CRTH2 [1] was 82.5 nM; on human CRTH2 [2] it was greater than 3000 nM.
On to `CC(C(=O)O)c1cc(C(=O)c2ccc(S(C)(=O)=O)cc2)c2cc(F)ccc2c1` (stereo not drawn) [Example 7-1, 2-[6-Fluoro-4-(4-methanesulfonyl-benzoyl)-naphthalen-2-yl]-propionic acid], for which the half-maximal inhibitory concentration (IC50) is 53.3 nM at human CRTH2 [1] and greater than 3000 nM on human CRTH2 [2].
Take `CS(=O)(=O)c1ccc(Cc2cc(CC(=O)O)cc3cc(C(F)(F)F)ccc23)cc1` [Example 8-3, [4-(4-Methanesulfonyl-benzyl)-7-trifluoromethyl-naphthalen-2-yl]-acetic acid]: the half-inhibitory concentration (IC50) is greater than 10000 nM in data set [3] and 162 nM at human CRTH2 [1].
In general, melting point refers to the temperature of the solid-liquid transition. Consider `Cc1c(CC(=O)O)cc2ccc(F)cc2c1Cc1ccc(S(=O)(=O)C(F)(F)F)cc1` [Example 11-1, [6-Fluoro-3-methyl-4-(4-trifluoromethanesulfonyl-benzyl)-naphthalen-2-yl]-acetic acid], for which the melting point lay within 200 to 201 °C. In addition, the IC50 at human CRTH2 [1] stood at 3 nM.
As to `Cc1ccc2cc(CC(=O)O)cc(C(O)c3ccc(S(C)(=O)=O)cc3)c2c1` (stereo not drawn) [Example 16-2, {4-[Hydroxy-(4-methanesulfonyl-phenyl)-methyl]-6-methyl-naphthalen-2-yl}-acetic acid], the IC50 in data set [3] was determined as 5750 nM; at human CRTH2 [1], 386 nM.
